Source: PubChem BioAssay (NCI)
Several values for one entry are separate records, joined by “and”; a condition that tells them apart may be missing. Equal entries are not always repeated.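 These data come from cells grown in 96-well plates and exposed to compound for 48 hours at five concentrations. The concentration for 50% growth inhibition is given as GI50. TGI denotes the concentration required for complete inhibition of growth.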

Legend:
Test in all cases: DTP human tumour cell line panel, 48 h
[1] = test system: SNB-78 CNS
[2] = test system: DLD-1 colon
[3] = test system: LXFL 529 NSCLC
[4] = test system: RXF-631 renal
[5] = test system: DMS 114 small cell lung
[6] = test system: MDA-MB-231 breast
[7] = test system: BT-549 breast
[8] = test system: MDA-N
[9] = test system: MCF7 breast

Row | SMILES | TGI [1] [µM] | TGI [2] [µM] | TGI [3] [µM] | TGI [4] [µM] | TGI [5] [µM] | TGI [6] [µM] | GI50 [7] [nM] | TGI [7] [µM] | GI50 [8] [nM] | TGI [8] [µM] | GI50 [9] [nM] | TGI [9]
1 | Cc1nc(N)sc1C(=O)/C=C\c1ccc2c(c1)OCO2 | > 100 | > 100 | > 100 | > 100 | > 100 | – | – | – | – | – | – | –
2 | Cc1cccc(NC(=O)C(=O)C(C(=O)c2ccc3ccccc3c2)C2OC(=O)c3ccccc32)c1C (centres undefined) | > 100 | 28.9 | 22.4 | 29.8 | 35.2 | – | – | – | – | – | – | –
3 | COC1(OC)C2(Cl)C(Cl)=C(Cl)C1(Cl)C1C=CC=CC12 (centres undefined) | > 100 | > 100 | > 100 | 39.9 | > 100 | – | – | – | – | – | – | –
4 | Cc1cccc(NC(=O)/C(=N\NC(C)(C)C)C2NC(=S)NC2=O)c1C (centres undefined) | > 100 | > 100 | > 100 | > 100 | – | – | – | – | – | – | – | –
5 | COc1cc2c(c(OC)c1OC)-c1ccc(OC)c(=O)cc1[C@@H](NC(=O)c1ccccc1)CC2 | 38.7 | > 100 | > 100 | > 48.3 | < 0.016 | 15.7 | < 3 | 30 | < 3 | < 0.003 | < 3 | 30 µM and > 7.65 µM
6 | Cn1c(=O)c(C(c2ccc([N+](=O)[O-])cc2)c2c(O)c3ccccc3n(C)c2=O)cc2ccccc21 (centres undefined) | > 100 | > 100 | > 100 | > 100 | > 100 | – | – | – | – | – | – | –
7 | COc1cc(C(C)O)c[n+](CCc2c[nH]c3ccccc23)c1 (centres undefined) | – | > 100 | > 100 | > 100 | > 100 | – | – | – | – | – | – | –
8 | O=C1C2C3C=C4c5ccccc5N(c5ccccc5)C4(C2C(=O)N1Cc1ccccc1)C1C(=O)N(Cc2ccccc2)C(=O)C31 (centres undefined) | > 100 | > 100 | > 100 | > 100 | > 100 | – | – | – | – | – | – | –
9 | O=C(O)C1OC(n2cc(F)c(=O)[nH]c2=O)CC1O (centres undefined) | > 100 | > 100 | > 100 | – | > 100 | > 100 | – | > 100 | – | > 100 | – | > 100 µM
10 | CCOc1ccccc1NC(=O)CC(C(=O)OC)C(=O)C(=O)OC (centres undefined) | > 100 | – | > 100 | > 100 | > 100 | – | – | – | – | – | – | –
11 | Cc1cn(C2CC(O)C(CO)O2)c(=O)n2nnnc12 (centres undefined) | > 100 | > 100 | > 100 | > 100 | > 100 | – | – | – | – | – | – | –
12 | C[C@@H]1CC(=O)C2CCCC1C2=O (some centres undefined) | > 100 | > 100 | > 100 | > 100 | > 100 | – | – | – | – | – | – | –
13 | COc1ccc(C(=O)C(C(=O)CCC(=O)Nc2cccc(Cl)c2)c2ccc(OC)cc2)cc1 (centres undefined) | – | > 100 | > 100 | > 100 | – | – | – | – | – | – | – | –
14 | CC(C)(C)c1ccc2c(c1)S(=O)(=O)Nc1ccccc1NS(=O)(=O)c1cc(C(C)(C)C)ccc1OCCOCCOCCO2 | > 100 | > 100 | – | > 100 | > 100 | – | – | – | – | – | – | –
